The target of experiment [1] is T1, TNAP activity (Mus musculus, UniProt P09242).
T1 sequence (P09242 18-501): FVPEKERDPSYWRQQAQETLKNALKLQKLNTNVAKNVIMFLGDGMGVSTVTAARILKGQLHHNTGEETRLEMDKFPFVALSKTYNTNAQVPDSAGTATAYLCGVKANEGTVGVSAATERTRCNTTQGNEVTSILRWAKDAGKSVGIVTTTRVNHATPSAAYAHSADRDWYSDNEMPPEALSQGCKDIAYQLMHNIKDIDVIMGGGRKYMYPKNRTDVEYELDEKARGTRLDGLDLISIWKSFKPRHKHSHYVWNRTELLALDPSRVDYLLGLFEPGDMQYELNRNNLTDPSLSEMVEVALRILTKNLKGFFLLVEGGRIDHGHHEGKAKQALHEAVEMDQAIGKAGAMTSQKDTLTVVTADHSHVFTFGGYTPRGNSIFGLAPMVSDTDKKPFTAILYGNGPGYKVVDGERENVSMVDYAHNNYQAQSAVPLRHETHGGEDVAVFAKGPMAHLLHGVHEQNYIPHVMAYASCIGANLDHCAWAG
More on the design: endogenous in cells. The following applies: cited from earlier work.

Experiment [2] has as its system PC-1-/- osteoblast cultures. The experiment in a line: Addition of recombinant proteins or PPi to PC-1-/- osteoblast cultures. Type of experiment: cell-based, mouse.
For experiment [3], the system named is ank/ank osteoblast cultures. The experiment in a line: Addition of recombinant proteins or PPi to ank/ank osteoblast cultures. Type of experiment: cell-based, mouse.
Experiment [4] concerns TNAP knock-out mice. The following applies: TNAP knock-out mice of Waymire et al.; cited from earlier work.
Experiment [5] relates to TNAP ko osteoblasts. The experiment in a line: Mineralization of bone nodules in primary TNAP ko osteoblast cultures (von Kossa). Format: cell-based, mouse. Particulars: added to the ko osteoblast culture medium. As for the experimental part:
Primary cultures of osteoblasts were isolated from calvariae of 1-4 day old pups that were hybrids of C57Bl/6×129/J mouse strains with wild-type, heterozygote and homozygote TNAP null genotypes. Isolation was performed by a slightly modified version of the time sequential collagenase technique described by Boonekamp et al. (Proc. Kon. Ned. Akad. Wet. B87:371-382, 1984). In brief, calvariae of the same genotype were pooled and three 10 minute incubations in 4 mM EDTA, 137 mM NaCl, 2.7 mM KCl, 3 mM NaH2PO4, pH 7.2, were performed, followed by seven 10 minute digestions in EDTA-free buffer, containing 180 units/ml collagenase type II (Worthington Biochemical Corporation, Lakewood, N.J.). All isolations were performed at 37° C. in a shaking water bath. The last five collagenase digestions, containing an enriched cell population of osteoblastic phenotype, were pooled and seeded at 4×10^4 cells/cm^2 in αMEM (Gibco BRL, Grand Island, N.Y.), containing 10% heat-inactivated FCS, penicillin (50 U/ml) and streptomycin ([…]).
To study mineralization, we used conditions under which we observed that osteoblasts normally formed von Kossa stain positive and alizarin red positive nodules at 7-10 days in culture. In brief, primary calvarial osteoblasts were cultured in complete αMEM media as described above, supplemented with β-glycerophosphate (10 mM) every third day and L-ascorbic acid (50 μg/ml) daily. MC3T3-E1 cells (Johnson et al., J. Bone Min. Res. 14:883-892, 1999) were maintained in the same medium, and for each experiment were plated at 80% confluence (1×10^6 cells in a 10 cm tissue-culture plastic dish in 5 ml) and received β-glycerophosphate and L-ascorbic acid as for primary osteoblasts above.
To evaluate the ability of primary osteoblasts to form and mineralize bone nodules in vitro, wild-type (wt), heterozygous and knock-out (ko) osteoblasts were cultured in media supplemented with ascorbic acid, using β-glycerophosphate as phosphate source. […] The extent of bone mineral deposition in these cultures was confirmed by quantifications of deposited calcium. […]

Where a chain is given by its changes, count along the chain named. Numbers in names are those of the source.

For the molecule `N=C(N)NCCCC[C@H](N)C(=O)O` [L-homoarginine], the “kind of inhibitor of TNAP activity” value in experiment [1] is given as “specific uncompetitive inhibitors of TNAP activity”. For the molecule `O=P(O)(O)OP(=O)(O)O` [PPi, inorganic pyrophosphate, reference compound], the osteopontin expression levels entry in experiment [2] (osteoblast cultures deficient in PC-1) and in experiment [3] (osteoblast cultures deficient in ANK protein) was “corrected their osteopontin expression levels to those comparable to wild-type” in each case.

For `c1ccc([C@H]2CN3CCSC3=N2)cc1` [levamisole], the “kind of inhibitor of TNAP activity” value in experiment [1] is given as “specific uncompetitive inhibitors of TNAP activity”.

Turning to `Cc1ncc(CO)c(CO)c1O.Cl` [vitamin B6], in experiment [4], the epileptic seizures result is on record as “partially rescue the epileptic seizures” and the life span result is on record as “prolonging their life”.

Take “recombinant osteopontin: recombinant osteopontin added to osteoblast cultures”: the “mineralization capacity (matrix calcification)” value in experiment [2] (PC-1-/- osteoblast cultures) and in experiment [3] (ank/ank osteoblast cultures) was “restored to normal” throughout.

B1: [R54C]TNAP: enzymatically inactive mutant of TNAP (protein, UniProt P05186 18-501, looked up, variant R54C)
Alkaline phosphatase, …: LVPEKEKDPKYWRDQAQETLKYALELQKLNTNVAKNVIMFLGDGMGVSTVTAACILKGQLHHNPGEETRLEMDKFPFVALSKTYNTNAQVPDSAGTATAYLCGVKANEGTVGVSAATERSRCNTTQGNEVTSILRWAKDAGKSVGIVTTTRVNHATPSAAYAHSADRDWYSDNEMPPEALSQGCKDIAYQLMHNIRDIDVIMGGGRKYMYPKNKTDVEYESDEKARGTRLDGLDLVDTWKSFKPRYKHSHFIWNRTELLTLDPHNVDYLLGLFEPGDMQYELNRNNVTDPSLSEMVVVAIQILRKNPKGFFLLVEGGRIDHGHHEGKAKQALHEAVEMDRAIGQAGSLTSSEDTLTVVTADHSHVFTFGGYTPRGNSIFGLAPMLSDTDKKPFTAILYGNGPGYKVVGGERENVSMVDYAHNNYQAQSAVPLRHETHGGEDVAVFSKGPMAHLLHGVHEQNYVPHVMAYAACIGANLGHCAPAS
Take B1: the induction of mineralization result in experiment [5] is “nor enzymatically inactive mutants of TNAP, such as [R54C]TNAP or [V365I]TNAP, were able to induce mineralization”.

B2: [V365I]TNAP: enzymatically inactive mutant of TNAP (protein, UniProt P05186 18-501, looked up, variant V365I)
Alkaline phosphatase, …: B1 Alkaline phosphatase, … with C54R, V365I
Regarding B2, in experiment [5], the induction of mineralization result was “nor enzymatically inactive mutants of TNAP, such as [R54C]TNAP or [V365I]TNAP, were able to induce mineralization”.
